Test results from PMC7070953, “Design of Light-Sensitive Triggers for Endothelial NO-Synthase Activation” (Antioxidants, 2020).
Entries after “also recorded” stand apart in the source; their conditions may differ. Like-named read-outs stand apart in the source and are kept apart here. Each block holds one molecule with its values, some of them ahead of it.

What was measured:
[1] = tested on: HUVEC cells; parameters: key to NO Formed upon Laser Excitation: +: NO formed under laser excitation; −: a lack of NO formed under laser excitation; conditions: cited from earlier work; for NO produced in HUVEC cells upon light activation (in words): ref 15 (NT1), ref 19 (NT2_5), 19 (NT2_7)
[2] = parameters: method as in earlier work; conditions: cited from earlier work
[3] = tested on: HUVEC cells; conditions: cited from earlier work
[4] = tested on: NOS; parameters: method as in PMID 19222033, PMID 17263536; conditions: one and two-photon excitation; cited from earlier work
[5] = molecular target: T1, nNOS (Rattus norvegicus, UniProt P29476); assay: Flavin reduction of nNOS upon light irradiation at 365 nm (absorption changes); format: biochemical; parameters: made in house; calmodulin purchased from Sigma; conditions: for FAD/flavin reduction upon light excitation (in words): irradiation at 365 nm
Description: Light irradiation of the NT -nNOS complexes in the presence of NOHA, H4B, and Ca^2+/calmodulin was performed by a continuous irradiation with a Hg/Xe lamp (Hamamatsu, LC6 Lightningcure, 200 W) equipped with narrow-band interference filter to select 365 nm (Semrock FF01-370/36: center wavelength 370 nm, nominal bandwidth […]) during one minute. The absorption changes before and after irradiation were measured on a Cary5000 spectrophotometer from Agilent Technologies (Les Ulys, France).
100 mM NOHA, 100 mM Ca^2+, 1 µg recombinant calmodulin, 20 mM Tris Buffer at pH = 7.8, 100 mM NaCl; representative data out of 2 experiments.

[6] = Self-association of free NTs in buffer (fluorescence vs concentration, fluorescence anisotropy); format: physicochemical
Description: (§1) The apparent binding affinities of the NTs to the neuronal (nNOS) and endothelial (eNOS) isoforms of nitric oxide synthase (NOS) were assessed by changes in NT intrinsic fluorescence using two types of titrations. In the first method, aliquots (1 μL) were added to 100 μL buffer containing NOS protein (5 μM), and fluorescence emission spectra were recorded from 430–700 nm (λexcitation = 420 nm; slit widths = 5 nm) on a Shimadzu RF-5301PC fluorimeter. Spectra of intrinsic protein fluorescence and unbound NT were subtracted from protein/NT spectra and the fluorescence at 460 nm was plotted against NT concentration. In the second method, we measured fluorescence spectra at a fixed concentration of the NT (1–2µM) with a Cary Eclipse spectrophotometer set at T = 20 °C, with excitation wavelength at 390 nm and emission wavelengths in the range 410–610 nm; the PM was usually set at 600 V with slits of 10 nm at both excitation and emission. […] The steady-state fluorescence anisotropy was calculated using: r = (IVV − G × IVH)/(IVV + 2G × IVH) where IVV and IVH correspond to vertical and horizontal components, respectively, when the sample is excited with vertically polarized light, G is the G-factor accounting for the difference in the monochromator transmission between // and ⊥ polarized components (G = IHV/IHH). […]

[7] = molecular target: T1, nNOS; parameters: made in house; conditions: value used in the Cheng-Prusoff equation; no reference given; read-out: Km of NADPH for nNOS; cited from earlier work
[8] = molecular target: T1, nNOS; assay: Fluorescence titration of NT binding to recombinant nNOS; parameters: made in house; conditions: [nNOS] = 0–10 µM, 10 mM Tris pH 7.2, 100 mM NaCl, read-out: Apparent Kd nNOS
Description: as §1

[9] = molecular target: T1, nNOS; parameters: made in house; method as in PMID 30986510; conditions: a: protein 5–10 µM, [NTs] = 0–50 µM; read-out: Apparent Kd nNOS; cited from earlier work

SMILES: O=C1OC2(c3ccc(O)cc3Oc3cc(O)ccc32)c2ccccc21 [fluorescein, reference compound]
Steady-state fluorescence anisotropy r ([6]; nNOS-free, NT3_3 at 5 µM, fluorescein as freely rotating monomer): 0.005

SMILES: NC(=O)C1=CN([C@@H]2O[C@H](COP(=O)(O)OP(=O)(O)OC[C@H]3O[C@@H](n4cnc5c(N)ncnc54)[C@H](OP(=O)(O)O)[C@@H]3O)[C@@H](O)[C@H]2O)C=CC1 [NADPH]
Km [7]: 5.5 µM

SMILES: CN(Cc1cn(C[C@H]2O[C@@H](n3cnc4c(N)ncnc43)[C@H](OCC(=O)O)[C@@H]2OCC(=O)O)nn1)c1ccc(/C=C/C=C/c2ccc(N)cc2)cc1 [NT2_3]
NO Formed upon Laser Excitation [1]: − | FAD/flavin reduction upon light excitation (in words) [5]: could not reduce FAD

SMILES: CN(Cc1cn(C[C@H]2O[C@@H](n3cnc4c(N)ncnc43)[C@H](OCC(=O)O)[C@@H]2O)nn1)c1ccc(/C=C/C=C/c2ccc(N)cc2)cc1 [NT2_7]
NO Formed upon Laser Excitation [1]: − | NO produced in HUVEC cells upon light activation (in words) [1]: unable to generate NO | Kd [9]: 30 ± 4 µM

Second part, led by results:

FAD/flavin reduction upon light excitation (in words) [5]: reduced FAD upon light excitation
SMILES: CCN(CCNC(=O)[C@H]1O[C@@H](n2cnc3c(N)ncnc32)[C@H](OP(=O)(O)O)[C@@H]1O)c1ccc(/C=C/C=C/c2ccc(N)cc2)cc1 [NT1]
NO Formed upon Laser Excitation [1]: + | NO produced in HUVEC cells upon light activation (in words) [1]: produced NO upon light activation | Self-association (in words) [2]: did not self-associate | Not toxic to HUVEC up to concentration [3]: up to 20 µM | Time of initiation and synchronization of NOS catalysis after photoexcitation [4]: 15–20 ps

Concentration above which fluorescence of free NT deviates from linearity (self-association) ([6]; free NT in buffer, fluorescence at 460 nm, order NT3_3 > NT3_5 > NT2_5 > NT3_7): above 5 µM | Kd ([8]; b: [NTs] = 1 or 2 µM): 1.3 ± 0.2 µM | Kd ([8]; c: [NTs] = 2 µM, 100 mM NOHA): 4 ± 0.7 µM | FAD/flavin reduction upon light excitation (in words) [5]: reduced FAD upon light excitation
SMILES: CN(Cc1cn(C[C@H]2O[C@@H](n3cnc4c(N)ncnc43)[C@H](O)[C@@H]2OCC(=O)O)nn1)c1ccc(/C=C/C=C/c2ccc(N)cc2)cc1 [NT2_5]
NO Formed upon Laser Excitation [1]: + | NO produced in HUVEC cells upon light activation (in words) [1]: produced NO upon light activation | Cytotoxicity in HUVEC cells above concentration ([3]; second generation of NT): above 5 µM | Ground state (dark) FAD reduction, no light (in words) ([5]; no light): some ground state reduction; also recorded: can reduce FAD in the ground state
